Source: patent publication US11261186B2, “Biaryl derivative as GPR120 agonist” (LG CHEM, LTD., priority 2014, dated 2022)

The compounds below were run against T1, hGPR120 (Homo sapiens, UniProt Q5NUL3) (assay: Measurement of Activity of GPR120 Agonist (Cell-Based Assay), Calcium 5 dye fluorescence). Settings: CHO-K1 cells expressing Ga16 and hGPR120.
T1 construct: expressed in transfected cells; host or cells: CHO-K1
T1 sequence (Q5NUL3 1-361): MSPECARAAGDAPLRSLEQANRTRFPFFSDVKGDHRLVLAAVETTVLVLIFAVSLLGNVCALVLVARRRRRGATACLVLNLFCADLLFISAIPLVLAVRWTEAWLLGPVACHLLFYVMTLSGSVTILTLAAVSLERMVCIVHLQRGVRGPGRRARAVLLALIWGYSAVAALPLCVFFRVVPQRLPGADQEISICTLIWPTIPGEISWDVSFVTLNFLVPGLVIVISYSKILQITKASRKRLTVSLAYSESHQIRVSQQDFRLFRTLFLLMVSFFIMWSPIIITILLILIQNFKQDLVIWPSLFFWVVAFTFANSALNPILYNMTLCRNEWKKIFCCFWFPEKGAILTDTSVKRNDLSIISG
Procedure, shortened: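 CHO-K1 cells co-expressing Gα16 and hGPR120, plated 18 h, loaded 1 h at 37°C with Calcium 5 dye. Serially diluted agonists added at 0.5% DMSO final; fluorescence read at Ex 485/Em 525 nm and expressed as relative % of DMSO-only signal.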
Work on COCCCOc1cc(C)nc(-c2cc(F)c(N3CCC(CC(=O)O)CC3)c(F)c2)n1 [Example 601, (1-{2,6-difluoro-4-[4-(3-methoxy-propoxy)-6-methyl-pyrimidin-2-yl]-phenyl}-piperidin-4-yl)-acetic acid] yielded an EC50 of 200 to 2000 nM. Work on COCCOc1cc(C)nc(-c2cc(F)c(N3CCC(CC(=O)O)CC3)c(F)c2)n1 [Example 602, (1-{2,6-difluoro-4-[4-(2-methoxy-ethoxy)-6-methyl-pyrimidin-2-yl]-phenyl}-piperidin-4-yl)-acetic acid] yielded an EC50 of 200 to 2000 nM. O=C(O)C[C@@H]1CCN(c2c(F)cc(-c3cccc(OCC4CC4)n3)cc2F)C1 [Example 604, {(S)-1-[4-(6-cyclopropylmethoxy-pyridin-2-yll)-2,6-difluoro-phenyl]-pyrrolidin-3-yl}-acetic acid] was tested, and the EC50 was < 200 nM. Compound CCc1ccc(Oc2ccnc(-c3cc(F)c(N4CCC(CC(=O)O)CC4)c(F)c3)n2)cc1 [Example 606, 2-[1-[2,6-difluoro-4-[6-(4-ethylphenoxy)pyrimidin-2-yl]phenyl]-4-piperidyl]acetic acid] has an EC50 of 200 to 2000 nM. O=C(O)CC1CCN(c2c(F)cc(-c3nccc(Oc4cccc(F)c4)n3)cc2F)CC1 [Example 607, 2-[1-[4-[4-(3-fluorophenoxy)pyrimidin-2-yl]-2,6-difluoro-phenyl]-4-piperidyl]acetic acid] was tested, and the EC50 was < 200 nM. Cc1cc(Oc2ccc(F)c(F)c2)nc(-c2cc(F)c(N3CCC(CC(=O)O)CC3)c(F)c2)n1 [Example 608, 2-[1-[2,6-difluoro-4-[4-(3,4-fluorophenoxy)-6-methyl-pyrimidin-2-yl]phenyl]-4-piperidyl]acetic acid] gave an EC50 of 200 to 2000 nM. In the case of O=C(O)CC1CCN(c2c(F)cc(-c3nccc(Oc4ccccn4)n3)cc2F)CC1 [Example 609, 2-[1-[2,6-difluoro-4-[4-(2-pyridyloxy)pyrimidin-2-yl]phenyl]-4-piperidyl]acetic acid], the EC50 is reported as 200 to 2000 nM. O=C(O)CC1CCN(c2c(F)cc(-c3nccc(Oc4ccc(C(F)(F)F)cc4)n3)cc2F)CC1 [Example 610, 2-[1-[2,6-difluoro-4-[4-[4-(trifluoromethyl)phenoxy]pyrimidin-2-yl]phenyl]-4-piperidyl]acetic acid] was tested, and the EC50 was 200 to 2000 nM. For O=C(O)CC1CCN(c2c(F)cc(-c3nccc(Oc4cccc(C(F)(F)F)c4)n3)cc2F)CC1 [Example 611, 2-[1-[2,6-difluoro-4-[4-[3-(trifluoromethyl)phenoxy]pyrimidin-2-yl]phenyl]-4-piperidyl]acetic acid], the EC50 was 200 to 2000 nM. Compound Cc1cc(Oc2ccc(C(F)(F)F)cc2)nc(-c2cc(F)c(N3CCC(CC(=O)O)CC3)c(F)c2)n1 [Example 612, 2-[1-[2,6-difluoro-4-[4-methyl-6-[4-(trifluoromethyl)phenoxy]pyrimidin-2-yl]phenyl]-4-piperidyl]acetic acid] has an EC50 of 2000 to 20000 nM. Work on Cc1cc(Oc2cccc(C(F)(F)F)c2)nc(-c2cc(F)c(N3CCC(CC(=O)O)CC3)c(F)c2)n1 [Example 613, 2-[1-[2,6-difluoro-4-[4-methyl-6-[3-(trifluoromethyl)phenoxy]pyrimidin-2-yl]phenyl]-4-piperidyl]acetic acid] yielded an EC50 of 2000 to 20000 nM. O=C(O)CC1CCN(c2c(F)cc(-c3cc(C(F)(F)F)cc(OC4CCC4)n3)cc2F)CC1 [Example 614, {1-[4-(6-cyclobutoxy-4-trifluoromethyl-pyridin-2-yl)-2,6-difluoro-phenyl]-piperidin-4-yl}-acetic acid] showed an EC50 of 2000 to 20000 nM. With O=C(O)CC1CCN(c2c(F)cc(-c3cccc4sc(-c5ccc(F)cc5)cc34)cc2F)CC1 [Example 615, (1-{2,6-difluoro-4-[2-(4-fluoro-phenyl)-benzo[b]thiophen-4-yl]-phenyl}-piperidin-4-yl)-acetic acid] the EC50 was 2000 to 20000 nM. Cc1cccc(-c2cc3c(-c4cc(F)c(N5CCC(CC(=O)O)CC5)c(F)c4)cccc3s2)c1 [Example 616, {1-[2,6-difluoro-4-(2-m-tolyl-benzo[b]thiophen-4-yl)-phenyl]-piperidin-4-yl}-acetic acid] showed an EC50 of 200 to 2000 nM. In the case of O=C(O)CC1CCN(c2c(F)cc(-c3nc(OC4CCC4)cc(C(F)(F)F)n3)cc2F)CC1 [Example 617, {1-[4-(4-cyclobutoxy-6-trifluoromethyl-pyrimidin-2-yl)-2,6-difluoro-phenyl]-piperidin-4-yl}-acetic acid], the EC50 is reported as > 20000 nM. CCCOc1cc(C(F)(F)F)nc(-c2cc(F)c(N3CCC(CC(=O)O)CC3)c(F)c2)n1 [Example 618, {1-[2,6-difluoro-4-(4-propoxy-6-trifluoromethyl-pyrimidin-2-yl)-phenyl]-piperidin-4-yl}-acetic acid] was tested, and the EC50 was 2000 to 20000 nM. O=C(O)CC1CCN(c2c(F)cc(-c3nc(Oc4ccc(F)cc4)cc(C(F)(F)F)n3)cc2F)CC1 [Example 619, (1-{2,6-difluoro-4-[4-(4-fluoro-phenoxy)-6-trifluoromethyl-pyrimidin-2-yl]-phenyl}-piperidin-4-yl)-acetic acid] showed an EC50 of 2000 to 20000 nM. In the case of CCCOc1cccc(-c2cc(F)c(N3CCC(CCC(=O)O)CC3)c(F)c2)n1 [Example 620, 3-{1-[2,6-difluoro-4-(6-propoxy-pyridin-2-yl)-phenyl]-piperidin-4-yl}-propionic acid], the EC50 is reported as 200 to 2000 nM. In the case of O=C(O)CCC1CCN(c2c(F)cc(-c3cccc(C4CCC4)n3)cc2F)CC1 [Example 621, 3-{1-[4-(6-cyclobutyl-pyridin-2-yl)-2,6-difluoro-phenyl]-piperidin-4-yl}-propionic acid], the EC50 is reported as 200 to 2000 nM. CCOc1cccc(-c2cc(F)c(N3CCC(CCC(=O)O)CC3)c(F)c2)n1 [Example 622, 3-{1-[4-(6-ethoxy-pyridin-2-yl)-2,6-difluoro-phenyl]-piperidin-4-yl}-propionic acid] gave an EC50 of 200 to 2000 nM.
